Results as given in BindingDB's records for doi:10.1021/jm801627a (Vernalis (R&D), 2009).

Biological target: Heat shock 70 kDa protein 1A (Homo sapiens, UniProt P0DMV8)
Experiment: HSP70 Fluorescence Polarization Assay
Conditions: pH 7.4; 23 °C
Procedure: A fluorescein-labeled ATP-based probe was utilized, which binds to the GST fused ATPase domain (amino acids 3-383) of HSP70, producing an increase in mP. The presence of a compound which competitively binds to the same site as the probe would lead to decreased mP values, by increasing the amount of free probe. Compounds were tested as 10-point IC50s. Assay mixtures were incubated for three hours prior to reading on the Fusion (ex 485 nm; em 535 nm). The data was fitted using a 4 parameter logistical data model by XLFit 4 (IDBS).

Sequence of Heat shock 70 kDa protein 1A (P0DMV8 whole entry): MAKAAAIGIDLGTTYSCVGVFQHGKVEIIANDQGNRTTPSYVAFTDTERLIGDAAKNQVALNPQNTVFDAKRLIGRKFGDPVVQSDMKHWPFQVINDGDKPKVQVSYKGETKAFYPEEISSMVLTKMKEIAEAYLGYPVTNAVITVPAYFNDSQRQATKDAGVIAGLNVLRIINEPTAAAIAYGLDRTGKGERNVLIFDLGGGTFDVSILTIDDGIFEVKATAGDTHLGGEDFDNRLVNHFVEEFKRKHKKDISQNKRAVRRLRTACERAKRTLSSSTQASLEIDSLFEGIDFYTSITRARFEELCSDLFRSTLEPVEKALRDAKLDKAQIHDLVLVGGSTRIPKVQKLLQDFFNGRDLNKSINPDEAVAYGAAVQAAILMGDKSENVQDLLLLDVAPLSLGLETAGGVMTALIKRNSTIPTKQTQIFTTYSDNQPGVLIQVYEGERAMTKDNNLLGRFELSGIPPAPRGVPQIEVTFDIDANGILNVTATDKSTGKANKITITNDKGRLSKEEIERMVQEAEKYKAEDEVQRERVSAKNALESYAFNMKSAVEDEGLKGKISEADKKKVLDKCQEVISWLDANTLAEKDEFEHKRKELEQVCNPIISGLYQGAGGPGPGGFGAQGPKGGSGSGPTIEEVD

## Nc1ncnc2c1nc(NCc1ccc3ncccc3c1)n2[C@@H]1O[C@H](COCc2cc(F)c(F)c(F)c2)[C@@H](O)[C@H]1O [adenosine-derived inhibitor, 17]
  IC50: < 400 nM
